The structures appear in SMILES notation. Where two headings read alike, the source gives them in different places.

Test [1] deals with His-GST-TVMV-hRIPK1 (1-324) (Homo sapiens (Human), UniProt Q13546). As to the kind of experiment: biochemical.
Protocol: A solution was prepared containing 0.2 nM Anti GST-Tb (Cisbio, 61GSTTLB), 90.6 nM probe and 1 nM His-GST-TVMV-hRIPK1 (1-324) in FRET Buffer (20 mM HEPES, 10 mM MgCl2, 0.015% Brij-35, 4 mM DTT, 0.05 mg/mL BSA). Using Formulatrix Tempest, the detection antibody/enzyme/probe solution (2 mL) was dispensed into wells of a 1536 plate (Black Low Binding Polystyrene 1536 Plate (Corning, 3724)) containing 10 nL of compounds of interest at appropriate concentration in DMSO. The plate was incubated at rt for 1 h. FRET was measured using the EnVision plate reader (Excitation: 340 nm, Emission: 520 nm/495 nM). Total signal (0% inhibition) was calculated from wells containing 10 nL DMSO only.
Test [2] concerns MLKL phosphorylation in HT29-L23 human colorectal adenocarcinoma cells. As to the kind of experiment: MLKL Phosphorylation High-Content Assay. The format is cell-based. To be noted: 6 h, necroptosis induced with TNFα, SMAC mimetic and Z-VAD, read-out: pMLKL (IC50). A digest of the protocol: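 Following fixation and staining for phospho-S358 MLKL with Hoechst nuclear counterstain, high-content imaging quantified phosphorylation in HT29-L23 cells challenged 6 h with TNFα 35 ng/mL, SMAC mimetic 700 nM and Z-VAD 140 nM. Nec-1s at 6.25 μM defined full inhibition; 4-parameter logistic fits yielded IC50 and Ymax.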

Chain of His-GST-TVMV-hRIPK1 (1-324) (Q13546 1-324): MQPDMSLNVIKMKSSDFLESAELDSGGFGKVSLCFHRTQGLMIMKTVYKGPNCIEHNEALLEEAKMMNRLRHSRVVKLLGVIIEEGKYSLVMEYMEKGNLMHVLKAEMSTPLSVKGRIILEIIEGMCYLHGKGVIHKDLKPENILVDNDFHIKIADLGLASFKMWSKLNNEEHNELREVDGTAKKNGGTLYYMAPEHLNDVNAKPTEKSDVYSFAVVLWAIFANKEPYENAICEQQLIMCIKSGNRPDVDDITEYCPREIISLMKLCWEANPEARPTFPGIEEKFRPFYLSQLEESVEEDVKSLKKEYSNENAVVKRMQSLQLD

For `[2H]C([2H])([2H])Oc1ncc(-c2ccc3c(C(=O)NC([2H])([2H])C([2H])([2H])[2H])n[nH]c3c2)cc1C(=O)N[C@@H]1CN(C(=O)C2CC(F)(F)C2)C[C@@H]1F` [Example 192, 6-(5-{[(3R,4S)-1-(3,3-difluorocyclo-butanecarbonyl)-4-fluoropyrrolidin-3-yl]carbamoyl}-6-(deutero)methoxy-pyridin-3-yl)-N-[(1,1,2,2,2-deutero)-ethyl]-1H-indazole-3-carboxamide], the values for the half-inhibitory concentration (IC50) in test [1] and in test [2] (Homo sapiens) were 110 nM and 430 nM, respectively.
`[2H]C([2H])([2H])Oc1ncc(-c2ccc3c(C(=O)NC4CC4)n[nH]c3c2)cc1C(=O)N[C@@H](C)CC(=O)OC(C)(C)C` [Example 195, tert-butyl (3S)-3-({5-[3-(cyclo-propylcarbamoyl)-1H-indazol-6-yl]-2-(deutero)methoxypyridin-3-yl}formamido)butanoate]: the IC50 in test [1] was 36 nM; in test [2], 39 nM.
Regarding `[2H]C([2H])([2H])Oc1ncc(-c2ccc3c(C(=O)NC4CC4)n[nH]c3c2)cc1C(=O)N[C@H](C)CC(=O)OC(C)(C)C` [Example 196, tert-butyl (3R)-3-({5-[3-(cyclo-propylcarbamoyl)-1H-indazol-6-yl]-2-(deutero)methoxypyridin-3-yl}formamido)butanoate], the IC50 in test [1] stood at 84 nM; in test [2], 19 nM.
Take `[2H]C([2H])([2H])Oc1ncc(-c2ccc3c(C(=O)NC4CC4)n[nH]c3c2)cc1C(=O)N[C@H](C)c1ccccc1C(F)(F)F` [Example 209, N-cyclopropyl-6-[6-(deutero)-methoxy-5-{[(1R)-1-[2-(trifluoro-methyl)phenyl]ethyl]carbamoyl}-pyridin-3-yl]-1H-indazole-3-carboxamide]: the concentration for half-maximal inhibition (IC50) amounted to 33 nM in test [1] and 74 nM in test [2] (Homo sapiens).
Taken in the same sequence, the figures for `[2H]C([2H])([2H])Oc1ncc(-c2ccc3c(C(=O)NC([2H])([2H])C([2H])([2H])[2H])n[nH]c3c2)cc1C(=O)N[C@@H](C)c1cc(OC(F)(F)F)ccc1F` [Example 224, N-[(1,1,2,2,2-deutero)ethyl]-6-(5-{[(1S)-1-[2-fluoro-5-(trifluorometh-oxy)phenyl]ethyl]carbamoyl}-6-(deutero)methoxypyridin-3-yl)-1H-indazole-3-carboxamide] were 17 nM and 12 nM.
Taken in the same sequence, the figures for `[2H]C([2H])([2H])Oc1ncc(-c2ccc3c(C(=O)NC([2H])([2H])C([2H])([2H])[2H])n[nH]c3c2)cc1C(=O)N[C@@H](C)c1cc(C(F)(F)F)ccc1F` [Example 226, N-[(1,1,2,2,2-deutero)ethyl]-6-(5-{[(1S)-1-[2-fluoro-5-(trifluoro-methyl)phenyl]ethyl]carbamoyl}-6-(deutero)methoxypyridin-3-yl)1H-indazole-3-carboxamide] were 57 nM and 41 nM.
Turning to `[2H]C([2H])([2H])Oc1ncc(-c2ccc3c(C(=O)NC([2H])([2H])C([2H])([2H])[2H])n[nH]c3c2)cc1C(=O)N[C@H](C)c1cccc(C(F)(F)F)c1` [Example 229, N-[(1,1,2,2,2-deutero)ethyl]-6-[6-(deutero)methoxy-5-{[(1R)-1-[3-(trifluoromethyl)phenyl]ethyl]car-bamoyl}pyridin-3-yl]-1H-indazole-3-carboxamide], the half-inhibitory concentration (IC50) in test [1] was determined as 210 nM; in test [2] (Homo sapiens), 82 nM.
The corresponding values for `[2H]C([2H])([2H])Oc1ncc(-c2ccc3c(C(=O)NC([2H])([2H])C([2H])([2H])[2H])n[nH]c3c2)cc1C(=O)N[C@@H](C)c1cccc(C(F)(F)F)c1` [Example 230, N-[(1,1,2,2,2-deutero)ethyl]-6-[6-(deutero)methoxy-5-{[(1S)-1-[3-(trifluoromethyl)phenyl]ethyl]car-bamoyl}pyridin-3-yl]-1H-indazole-3-carboxamide] are 11 nM and 55 nM.
As to `[2H]C([2H])([2H])Oc1ncc(-c2ccc3c(C(=O)NC([2H])([2H])C([2H])([2H])[2H])n[nH]c3c2)cc1C(=O)N[C@H](C)c1cccc(OC(F)(F)F)c1` [Example 231, N-[(1,1,2,2,2-deutero)ethyl]-6-[6-(deutero)methoxy-5-{[(1R)-1-[3-(trifluoromethoxy)phenyl]ethyl]-carbamoyl}pyridin-3-yl]-1H-indazole-3-carboxamide], the 50% inhibitory concentration (IC50) is 48 nM in test [1] and 10 nM in test [2] (Homo sapiens).
The corresponding values for `[2H]C([2H])([2H])Oc1ncc(-c2ccc3c(C(=O)NC([2H])([2H])C([2H])([2H])[2H])n[nH]c3c2)cc1C(=O)N[C@H](C)c1ccccc1C(F)(F)F` [Example 235, N-[(1,1,2,2,2-deutero)ethyl]-6-[6-(deutero)methoxy-5-{[(1R)-1-[2-(trifluoromethyl)phenyl]ethyl]car-bamoyl}pyridin-3-yl]-1H-indazole-3-carboxamide] are 34 nM and 48 nM.
Taken in the same sequence, the figures for `[2H]C([2H])([2H])Oc1ncc(-c2ccc3c(C(=O)NC([2H])([2H])C([2H])([2H])[2H])n[nH]c3c2)cc1C(=O)NCC[C@@H](O)c1ccc(Cl)cc1` [Example 237, 6-(5-{[(3R)-3-(4-chlorophenyl)-3-hydroxypropyl]carbamoyl}-6-(deutero)methoxypyridin-3-yl)-N-[(1,1,2,2,2-deutero)ethyl]-1H-indazole-3-carboxamide] were 6.3 nM and 14 nM.
The corresponding values for `[2H]C([2H])([2H])Oc1ncc(-c2ccc3c(C(=O)NC([2H])([2H])C([2H])([2H])[2H])n[nH]c3c2)cc1C(=O)N[C@@H](C)CC(=O)OC(C)(C)C` [Example 238, tert-butyl (3S)-3-{[5-(3-{[(1,1,2,2,2-deutero)ethyl]carbamoyl}-1H-indazol-6-yl)-2-(deutero)methoxy-pyridin-3-yl]formamido}butanoate] are 47 nM and 41 nM.

Values taken from patent publication US12172975B2, “1H-indazole carboxamides as receptor-interacting protein kinase 1 inhibitors (RIPK1)” (BRISTOL-MYERS SQUIBB COMPANY, priority 2018, dated 2024).
